The target in test [1] is T1, wild-type human receptor NK1 (Homo sapiens, UniProt P25103).
T1 construct: expressed in transfected cells; host or cells: HEK 293
Kind of test: Calcium response caused by substance P in HEK 293 cells expressing NK1 receptor. The format is cell-based. To be noted: 805 20 μM; substance P 0.1 or 10 nM. On the procedure:
In FIGS. 12A and 12B, a suspension (1×10^6 cells/ml) of HEK 293 cells expressing the wild-type human NK1 receptor, and charged with indo-1 (3 μM) is stimulated by 0.1 nM (FIG. 12A) or 10 nM (FIG. 12B) of substance P(SP) in the presence (black circles) and in the absence (white circles) of 805 molecules (20 μM).
(§1) The cells are put into suspension at a rate of 1,000,000 cells/ml in Hepes buffer (op. cit.) and arranged in a spectrofluorimeter cuvette. The excitation wavelength is fixed at 338 nm and the emission is recorded at 400 nm. The responses traced are the signals recorded at 400 nm.

Test [2] deals with T2, receptor EGFP-NK2R (Homo sapiens, UniProt P21452).
T2 sequence (P21452 1-398): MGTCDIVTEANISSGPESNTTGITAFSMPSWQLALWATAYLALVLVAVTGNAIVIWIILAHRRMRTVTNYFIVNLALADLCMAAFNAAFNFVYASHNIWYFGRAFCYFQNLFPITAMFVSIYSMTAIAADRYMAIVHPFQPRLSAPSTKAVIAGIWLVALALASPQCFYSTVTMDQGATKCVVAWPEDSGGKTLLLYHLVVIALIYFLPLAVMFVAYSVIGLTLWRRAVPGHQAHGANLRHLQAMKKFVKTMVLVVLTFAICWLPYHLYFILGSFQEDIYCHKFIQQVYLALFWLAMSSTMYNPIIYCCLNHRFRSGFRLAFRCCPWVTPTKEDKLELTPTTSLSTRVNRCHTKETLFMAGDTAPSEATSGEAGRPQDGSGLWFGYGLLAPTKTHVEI
Kind of test: Reversion of the binding of NKA-Bo to EGFP-NK2R by fluorescence energy transfer. The note with it: read-out: % bond reversion (50 μM). From the text:
(§2) The amplitude of each relaxation is then given by the adjustment of the experimental traces.

Test [3] deals with T2, receptor EGFP-NK2R. Kind of test: Calcium response caused by NKA 4-10 TR7 in HEK 293 cells expressing EGFP-NK2R (indo-1). The format is cell-based. To be noted: 805 20 μM; NKA 4-10 TR7 106, 50.3, 26.5 and 10.6 nM. On the procedure:
The cells are put into suspension at a rate of 500,000 cells/ml in Hepes buffer and arranged in a spectrofluorimeter cuvette. The excitation wavelength is fixed at 355 nm and the emission is recorded at […].

Test [4] addresses T2, receptor EGFP-NK2R. Kind of test: Calcium response caused by NKA/NKA-Bo in HEK 293 cells expressing EGFP-NK2R (indo-1). The class given is cell-based. To be noted: for time necessary to return to 50% of the maximum calcium response: 5 nM NKA, 91 seconds in the absence of 805. On the procedure: The calcium responses caused by the agonist NKA-Bo on cells expressing the receptor EGFP-NK2R are recorded after charging the cells with the calcium-sensitive fluorescent probe: indo-1, according to the protocol described in Vollmer et al. (1999). The cells are put into suspension at a rate of 500,000 cells/ml in Hepes buffer and arranged in a spectrofluorimeter cuvette. The excitation wavelength is fixed at 338 nm and the emission is recorded at 400 and 470 nm. The responses traced are the ratios of the signals 400/470.

The target of test [5] is T3, wild-type human receptor NK2 (Homo sapiens, UniProt P21452).
T3 construct: expressed in transfected cells; host or cells: HEK 293
T3 sequence (P21452 1-398): T2 sequence (P21452 1-398)
Kind of test: Calcium response caused by neurokinin A in HEK 293 cells expressing NK2 receptor. The class given is cell-based. To be noted: 805 20 μM; neurokinin A 10 or 100 nM. On the procedure:
as §1

Test [6] addresses T4, receptor EGFP-NK2R (UniProt P16610).
T4 sequence (P16610 1-390): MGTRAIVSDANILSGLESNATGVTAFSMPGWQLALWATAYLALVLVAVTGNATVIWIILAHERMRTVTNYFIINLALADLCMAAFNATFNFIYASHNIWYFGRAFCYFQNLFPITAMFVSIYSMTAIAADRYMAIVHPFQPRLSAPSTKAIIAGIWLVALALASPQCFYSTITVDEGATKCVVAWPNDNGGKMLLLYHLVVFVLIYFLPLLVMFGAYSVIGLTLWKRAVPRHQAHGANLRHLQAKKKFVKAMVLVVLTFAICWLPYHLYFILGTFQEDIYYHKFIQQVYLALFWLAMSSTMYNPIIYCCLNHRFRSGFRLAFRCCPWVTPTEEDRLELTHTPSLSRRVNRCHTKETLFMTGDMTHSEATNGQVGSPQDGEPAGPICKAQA
Briefly: Dissociation of NKA4-10 TR7 from EGFP-NK2R by fluorescence energy transfer. The format is binding. More on the design: % al (max): maximum value observed for the increase in amplitude of the rapid dissociation rate; ns = n; other: 20 nM of NK; % al (at 10 μM); other: compou; fused on or other part: EGFP fused to the receptor as FRET donor. On the procedure: The x-axis represents time in seconds and the y-axis represents fluorescence.
In the presence of 10 μM of 805, an acceleration of the dissociation is observed characterized by a modification of the amplitudes of the rapid (88%) and slow (12%) dissociation stages.

Test [7] has as its target T4, receptor EGFP-NK2R. Kind of test: Dissociation kinetics of NKA-Bo bound to EGFP-NK2R by fluorescence energy transfer. The class given is binding. More on the design: % al (max): maximum value observed for the increase in amplitude of the rapid dissociation rate; ns = n; other: 20 nM of NK; % al (at 10 μM); other: compou; fused on or other part: EGFP fused to the receptor as FRET donor. To be noted: for λ1/λ2 amplitudes (rapid/slow) of dissociation of NKA-Bo: 30/70 without 805. As for the experimental part: Dissociation (FIG. 4B): HEK 293 cells expressing the receptor EGFP-NK2R are put into suspension at a concentration of 1,000,000 cells/ml in Hepes physiological buffer (in mM: 137.5 NaCl; 1.25 MgCl2; 1.25 CaCl2; 6 KCl; 5.6 glucose; 10 Hepes; 0.4 NaH2PO4; 1% BSA (w/v); pH 7.4) and arranged in a 1 ml cuvette equipped with a magnetic stirrer on the cuvette holder of a SPEX fluorolog 3 spectrofluorimeter.
as §2

The values that follow come from patent US20060194259A1, “Method for isolating an allosteric effector of a receptor” (priority 2002, published 2006).

T1 sequence (P25103 whole entry): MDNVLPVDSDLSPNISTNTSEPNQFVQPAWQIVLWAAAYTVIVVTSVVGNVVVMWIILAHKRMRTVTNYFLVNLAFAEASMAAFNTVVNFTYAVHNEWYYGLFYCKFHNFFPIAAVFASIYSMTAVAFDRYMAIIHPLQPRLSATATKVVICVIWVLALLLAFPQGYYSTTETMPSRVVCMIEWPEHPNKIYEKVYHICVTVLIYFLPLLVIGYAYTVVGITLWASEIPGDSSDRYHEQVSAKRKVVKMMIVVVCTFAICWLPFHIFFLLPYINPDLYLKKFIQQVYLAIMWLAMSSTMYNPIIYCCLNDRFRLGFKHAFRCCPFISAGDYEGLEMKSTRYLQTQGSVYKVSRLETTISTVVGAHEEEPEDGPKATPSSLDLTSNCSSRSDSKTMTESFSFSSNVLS

As to `N#CCN(Cc1ccccc1)Cc1ccc2ccccc2c1` [compound 805, [benzyl(2-naphthylmethyl)amino]acetonitrile], the “effect on the calcium response caused by substance P” value in test [1] is “increases the amplitude of the response”. Moreover, the inhibition at 50 µM in test [2] amounted to 9%. Also, the “effect on the calcium response caused by NKA 4-10 TR7” value in test [3] is given as “increases the amplitude of the response”. For the same compound, the “time necessary to return to 50% of the maximum calcium response” value stood at 105 s in test [4] (805 10 μM) and 115 s in test [4] (805 50 μM). Besides, the “effect on the calcium response caused by NKA” value in test [4] (805 50 μM with 1, 5 and 1000 nM NKA) is recorded as “increases the duration of the calcium response”. Besides, the “effect on the calcium response caused by neurokinin A” value in test [5] is “increases the amplitude of the response”. Besides, the “amplitude of the slow dissociation of NKA4-10 TR7” value in test [6] (10 μM of 805, 10° C., 42% without 805) is 12%. Besides, the “amplitude of the rapid dissociation of NKA4-10 TR7” value in test [6] (805 at 100 μM, approximately 40% in the absence of 805) was “up to 90%”. The EC50 in test [6] (read-out: concentration which causes a 50% increase in the amplitude of the rapid dissociation of NKA4-10 TR7 (apparent affinity), 10° C.) is around 20 µM; in test [7] (read-out: EC50 (μM): concentration of compound causing a 50% increase (relative to the maximum value) in the percentage of the amplitude of the rapid dissociation rate, Table 1, dissociation of NKA-Bo from EGFP-NK2R, ns = not significant) it was 3 to 8 µM. In addition, the “λ1/λ2 amplitudes (rapid/slow) of dissociation of NKA-Bo” value is listed as 35/65 in test [7] (1 μM 805) and 80/20 in test [7] (50 μM 805). For the same compound, the “% al (max): maximum value observed for the increase in amplitude of the rapid dissociation rate” value in test [7] (Table 1, ns = not significant) was found to be 80%. In addition, the “% al (at 10 μM)” value in test [7] (compound 10 μM, T = 22 ± 1 is amplitude of rapid dissociation in the absence of effector) is 29 (10 μM) %.
